In patent publication US10633350B2, “Diphenyl derivatives and uses thereof” (NOVARTIS AG, priority 2017, dated 2020):

Columns and labels:
Akt = Akt activation assay (Phospho-AKT (Ser473) antibody staining) in U2OS GFP-FoxO3a H212R reporter cells; type: cell-based; conditions: Homo sapiens, 0.5 h, serum starved overnight, 30 minutes compound treatment, total cellular intensity of Phospho-Akt (Ser473) antibody staining, AC50 = concentration that results in 50% activation or inhibition
Outline: (§1)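 Serum-starved (overnight) cells treated with compounds at various doses for 30 min, then fixed in 4% paraformaldehyde and stained overnight at 4 °C for pAkt S473 with Hoechst nuclear counterstain; high-content imaging. FoxO3a readout: nuclear/cytosolic GFP ratio (%); Akt readout: total cellular pAkt intensity (%); DMSO = 0% activity.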

FoxO3a = FoxO3a inhibition assay (GFP-FoxO3a nuclear to cytoplasmic translocation) in U2OS GFP-FoxO3a H212R reporter cells; type: cell-based; conditions: Homo sapiens, 0.5 h, serum starved overnight, 30 minutes compound treatment, ratio of nuclear to cytosolic GFP intensity, AC50 = concentration that results in 50% activation or inhibition, read-out: FoxO AC50
Outline: as §1

Compound: Cc1nc(C(N)=O)nn1-c1ccc(Cc2ccc(C#CC3(O)CCCCC3)cc2)cc1 [Example 55, 1-(4-(4-((1-hydroxycyclohexyl)ethynyl)benzyl)phenyl)-5-methyl-1H-1,2,4-triazole-3-carboxamide]
- AC50 (Akt): 1290 nM
- AC50 (FoxO3a): 96 nM

Compound: Cc1nc(C(N)=O)nn1-c1ccc(Cc2ccc(-c3ccc(C(C)(C)CO)cn3)cc2)cc1 [Example 56, 1-(4-(4-(5-(1-hydroxy-2-methylpropan-2-yl)pyridin-2-yl)benzyl)phenyl)-5-methyl-1H-1,2,4-triazole-3-carboxamide]
- AC50 (Akt): 366 nM
- AC50 (FoxO3a): 156 nM
